Where a name gives a salt, the structure may show the parent alone. Peptide text beside a SMILES is read from it. * marks the point of attachment. Decanoyl = CCCCCCCCCC(=O)*; CH2Cl = ClC*
Tests used:
[1] = system: WT SARS-COV-2 (USA-WA1/2020); type: cell-based
SARS-COV-2 omicron JN.1 = experiment: microbe, parasite or virus in culture; type: cell-based; conditions: Severe acute respiratory syndrome coronavirus 2, 48 h; for inhibition at 36 µM: read-out: replication inhibition
SARS-COV-2 = conditions: cited from earlier work
SARS-COV-2 (WA1/2020) = type: cell-based
229E-CoV = experiment: organism not typed; type: cell-based; conditions: for IC50: 48 h
[2] = molecular target: main protease of SARS-COV-2 (Severe acute respiratory syndrome coronavirus 2, UniProt P0DTD1); conditions: cited from earlier work
MERS-COV = type: cell-based

In the case of O=c1nc(NO)ccn1[C@@H]1O[C@H](CO)[C@@H](O)[C@H]1O [EIDD-1931], the “dose-dependent inhibition of infection” value [1] is reported as “dose-dependent inhibition of infection”, the “inhibition of SARS-COV-2 infection (dose-response curve)” value (from here on “inhibition of SARS-COV-2 infection”) [1] is reported as “strong inhibition efficacy” and the inhibition of infection [1] is reported as “complete inhibition”. The reduction of infection [1] was “at least 50%”.

Compound CCN(CC)Cc1cc(Nc2ccnc3cc(Cl)ccc23)ccc1O [amodiaquine] has an IC50 (SARS-COV-2 omicron JN.1) of 12 to 12.1 µM and an inhibition at 36 µM (SARS-COV-2 omicron JN.1) of 80 to 95%.

For CN(C)C(=O)COC(=O)Cc1ccc(OC(=O)c2ccc(NC(=N)N)cc2)cc1 [camostat mesylate], the “inhibition of SARS-COV-2 infection” value [1] is given as “significantly inhibited”, the cell toxicity (ACE2plusC3 cells) is given as “without causing cell toxicity” and the “SARS-COV-2-driven entry and infection” value (SARS-COV-2) is given as “significantly reduces”.

CCN(CC)CCCC(C)Nc1ccnc2cc(Cl)ccc12 (stereo not drawn) [chloroquine] gave an IC50 (SARS-COV-2 omicron JN.1) of 12 to 12.1 µM and an inhibition at 36 µM (SARS-COV-2 omicron JN.1) of 80 to 95%.

With CCCCCCCCCC(=O)N[C@@H](CCCN=C(N)N)C(=O)N[C@H](C(=O)N[C@@H](CCCCN)C(=O)N[C@@H](CCCN=C(N)N)C(=O)CCl)C(C)C [decanoyl-RVKR-CMK] (Decanoyl-RVKR-CH2Cl) the “inhibition of infection by immunofluorescence” value [1] was “moderate inhibition of infection” and the “inhibition of infection by plaque assay (viral titer)” value (SARS-COV-2 (WA1/2020)) was “moderate inhibition of infection”.

For Cn1cnc(Cn2c(=O)[nH]/c(=N\c3cc4cn(C)nc4cc3Cl)n(Cc3cc(F)c(F)cc3F)c2=O)n1 [ensitrelvir], the “inhibitory effect on infected cells” value (229E-CoV) was “no inhibitory effect”.

In the case of CCCCN(CCCC)CCC(O)c1cc2c(Cl)cc(Cl)cc2c2cc(C(F)(F)F)ccc12 (stereo not drawn) [halofantrine], the IC50 (SARS-COV-2 omicron JN.1) is listed as 4 µM, the inhibition at 36 µM (SARS-COV-2 omicron JN.1) is listed as 80 to 95% and the “binding to main protease” value [2] is listed as “effectively binds”.

With Cc1c(O)cccc1C(=O)N[C@@H](CSc1ccccc1)[C@H](O)CN1C[C@H]2CCCC[C@H]2C[C@H]1C(=O)NC(C)(C)C [nelfinavir] the “dose-dependent inhibition of infection” value [1] was “dose-dependent inhibition of infection”, the “inhibition of SARS-COV-2 infection” value [1] was “potent and dose-dependent inhibition of infection” and the inhibition of infection [1] was “did not completely inhibit infection”. For the same compound, the “concentration with increased toxicity” value (ACE2plusC3 cells; human) was at least 25 µM.

In the case of CC(C)(C)[C@H](NC(=O)C(F)(F)F)C(=O)N1C[C@H]2[C@@H]([C@H]1C(=O)N[C@H](C#N)C[C@@H]1CCNC1=O)C2(C)C [nirmatrelvir, Nirmatrelvir], the “dose-dependent inhibition of infection” value [1] is reported as “dose-dependent inhibition of infection”, the “inhibition of SARS-COV-2 infection” value [1] is reported as “strong inhibition efficacy” and the inhibition of infection [1] is reported as “nearly completely inhibited”. For the same compound, the CPE inhibition (MERS-COV) was “approximately 90%” and the IC50 (229E-CoV) was 0.818 to 1.03 µM.

N#C[C@H](C[C@@H]1CCCNC1=O)NC(=O)[C@H](CC1CC1)NC(=O)c1cc2cccc(Cl)c2[nH]1 [pomotrelvir] showed an IC50 (229E-CoV) of 0.818 to 1.03 µM.

— patent US20250123269A1 (priority 2023, published 2025)
